From patent US9102617B2, “Antimicrobial agents” (Rutgers, The State University of New Jersey, priority 2010, dated 2015)
Like-named read-outs stand apart in the source and are kept apart here.

Assays:
[1] = test system: methicillin-sensitive Staphylococcus aureus (MSSA); test: Planktonic antibacterial broth microdilution assay (Test C), MIC vs MSSA; format: cell-based; conditions: 37° C., growth read after 24 to 48 hours at OD 600 nm
Protocol: (§1) Test C. Planktonic (Free-Living) Antibacterial Assay.
(§2) Planktonic antibacterial activity can be determined using a broth microdilution assay in which log-phase bacteria are grown at 37° C. in appropriate medium containing two-fold serial dilutions of a compound to yield a final concentration ranging from 256 to 0.1 μg/ml. For determination of minimal inhibitory concentration (MIC) values, bacterial growth is monitored after 24 to 48 hours by measuring optical density at 600 nm. […] The minimal inhibitory concentration against methicillin-sensitive Staphylococcus aureus (MSSA) for each of the following representative compounds of the invention was determined to be less than 32 μg/ml.

[2] = test system: methicillin-resistant Staphylococcus aureus (MRSA); test: Planktonic antibacterial broth microdilution assay (Test C), MIC vs MRSA; format: cell-based; conditions: read-out: MIC vs MRSA
Protocol: as §1, §2
Representative compounds of the invention were also tested against methicillin-resistant Staphylococcus aureus, vancomycin-resistant Enterococcus faecalis and Enterococcus faecium (VRE), vancomycin-sensitive Enterococcus faecalis and Enterococcus faecium (VSE).

[3] = target: T1, S. aureus FtsZ (Staphylococcus aureus, UniProt P0A031); test: Inhibition of S. aureus FtsZ polymerization and GTPase activity (Tests A and B); format: biochemical
T1 sequence (P0A031 1-390): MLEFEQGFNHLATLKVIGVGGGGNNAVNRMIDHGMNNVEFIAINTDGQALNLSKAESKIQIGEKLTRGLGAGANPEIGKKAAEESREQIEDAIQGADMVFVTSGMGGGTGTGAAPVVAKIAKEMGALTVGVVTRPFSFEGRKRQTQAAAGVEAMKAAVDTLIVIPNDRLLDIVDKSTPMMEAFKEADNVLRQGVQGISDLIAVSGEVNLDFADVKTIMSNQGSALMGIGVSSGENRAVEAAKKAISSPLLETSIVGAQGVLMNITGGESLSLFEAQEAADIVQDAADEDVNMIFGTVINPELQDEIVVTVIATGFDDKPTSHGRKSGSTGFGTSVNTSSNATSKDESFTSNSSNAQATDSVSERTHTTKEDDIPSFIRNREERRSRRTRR
Source text: Test A. Determining the Impact of the Compounds of the Invention on FtsZ Polymerization Dynamics.
Compound-induced alteration in FtsZ polymerization dynamics can be tested using a light scattering-based […] using purified FtsZ. Upon addition of GTP, FtsZ self-associates to form polymeric structures that scatter light at 340 nm to a greater extent than the monomeric protein. The impact of the compounds of the invention on the polymerization dynamics of FtsZ can be detected by an increase of decrease in the extent of GTP-induced light scattering relative to that observed in the absence of compound. Quantitation of the overall extent of light scattering as a function of compound concentration to yield a compound concentration at which FtsZ polymerization is inhibited by 50% (IC50) provides an indication of the potency of that compound at altering FtsZ polymerization dynamics.
Test B. Determining the FtsZ GTPase Inhibitory Activities of Compounds of the Invention.
Compound-induced inhibition of the FtsZ GTPase activity can be tested using a colorimetric assay in which the inorganic phosphate (Pi) released upon FtsZ-catalyzed hydrolysis of GTP reacts with malachite green and molybdate under acidic conditions to form a ternary complex that absorbs light at 650 nm, thus enabling quantitation of Pi levels by recording the absorbance at 650 nm (A650). Differing concentrations of test compound are combined with GTP and the reactions (run in triplicate) are initiated by addition of FtsZ. After incubation for 60 minutes at room temperature, the reactions are stopped by addition of an acidic malachite green-molybdate solution containing malachite green oxalate, sodium molybdate, Triton X-100, and 0.7 N HCl. For the purposes of generating a standard curve, each experiment includes reactions containing known concentrations of monobasic potassium phosphate (KH2PO4) in place of FtsZ. Ten minutes following addition of the acidic malachite green-molybdate solution, the A650 value for each reaction is recorded. A standard curve of A650 versus Pi concentration is constructed using the average A650 value obtained for each known KH2PO4 concentration. This standard curve is then fit by linear regression analysis to yield the quantitative relationship between A650 and Pi concentration. The resulting relationship as well as the average A650 value for each test reaction is used to calculate the concentrations of Pi released by the GTPase activity of FtsZ. The released Pi concentration in the absence of test compound is set as the mark for 100% GTPase activity, and is used to calculate the percent GTPase activities in reactions containing test compounds. The percent GTPase activity is then plotted as a function of log (compound concentration), with the resulting curves being fit using an appropriate sigmoidal relationship to obtain the compound concentrations at which GTPase activity is inhibited by 50% (IC50 values).

[4] = broth microdilution, 37° C., growth read after 24 to 48 hours at OD 600 nm
[5] = S. aureus FtsZ, polymerization and/or GTPase activity, read-out: IC50 (compound concentration at which FtsZ polymerization and/or GTPase activity is inhibited by 50%)

## CCC[n+]1cc(-c2cc(OC)c(OC)c(-c3ccc(C(C)(C)C)cc3)c2)cc2cc(OC)c(OC)cc21.[I-] [Example 19]
[1]
  MIC: ≤ 8 µg/mL
[2]; [4]
  MIC: ≤ 8 µg/mL
[3]; [5]
  IC50: < 79.7 µM

## CC(C)(C)c1ccc(-c2cccc3c(CN)cccc23)cc1 [Example 41]
[1]
  MIC: ≤ 8 µg/mL
[2]; [4]
  MIC: ≤ 8 µg/mL
[3]; [5]
  IC50: < 173 µM

## CC(C)(C)c1ccc(-c2cccc3c(CNC(=N)N)cccc23)cc1 [Example 42]
[1]
  MIC: ≤ 8 µg/mL
[2]; [4]
  MIC: ≤ 8 µg/mL
[3]; [5]
  IC50: < 151 µM

## CC(C)(C)c1ccc(-c2cccc3cc(-c4ccccc4CNCCN)ccc23)cc1 [Example 62]
[1]
  MIC: ≤ 8 µg/mL
[2]; [4]
  MIC: ≤ 8 µg/mL

## CC(C)(C)c1ccc(-c2cccc3cc(-c4ccccc4C[N+](C)(C)C)ccc23)cc1.[I-] [Example 63]
[1]
  MIC: ≤ 8 µg/mL
[2]; [4]
  MIC: ≤ 8 µg/mL
[3]; [5]
  IC50: < 93.4 µM

## NCc1cccc(-c2ccc3c(-c4cccc(-c5ccccc5)c4)cccc3c2)c1 [Example 70]
[1]
  MIC: ≤ 8 µg/mL
[2]; [4]
  MIC: ≤ 8 µg/mL

## CC(C)(C)c1ccc(-c2cccc3cc(-c4ccccc4CNC(=N)N)ccc23)cc1 [Example 104]
[1]
  MIC: ≤ 8 µg/mL
[3]; [5]
  IC50: < 123 µM

## C[n+]1ccc2c(-c3ccc(-c4ccccc4)cc3)cccc2c1.[I-] [Example 112]
[1]
  MIC: ≤ 8 µg/mL
[2]
  MIC: 32 µg/mL
[3]
  IC50: < 118 µM

## C[n+]1cccc2cc(-c3ccc(-c4ccccc4)cc3)ccc21.[I-] [Example 114]
[1]
  MIC: ≤ 8 µg/mL
[2]; [4]
  MIC: ≤ 8 µg/mL
[3]; [5]
  IC50: < 118 µM

## C[n+]1cccc2ccc(-c3ccc(-c4ccccc4)cc3)cc21.[I-] [Example 116]
[1]
  MIC: ≤ 8 µg/mL
[2]; [4]
  MIC: 16 µg/mL

## C[n+]1ccc(-c2ccc(-c3ccccc3)cc2)c2ccccc21.[I-] [Example 120]
[1]
  MIC: ≤ 8 µg/mL
[2]
  MIC: > 32 µg/mL
[3]
  IC50: < 118 µM
